According to PubChem BioAssay (NCI):
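The compound was tested at five concentrations on cells cultured in 96-well plates, with a 48-hour exposure period. Abbreviation: GI50, concentration required for 50% inhibition of growth. At the TGI there is no net growth.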

Experiments:
Experiment in all cases: NCI tumour cell line growth inhibition, 48 h
SF-295 CNS = test system: SF-295 CNS
SK-MEL-2 melanoma = test system: SK-MEL-2 melanoma
OVCAR-8 ovarian = test system: OVCAR-8 ovarian
OVCAR-5 ovarian = test system: OVCAR-5 ovarian
HCC-2998 colon = test system: HCC-2998 colon
UO-31 renal = test system: UO-31 renal
NCI-H460 lung = test system: NCI-H460 lung
RXF 393 renal = test system: RXF 393 renal
HOP-92 NSCLC = test system: HOP-92 NSCLC
SF-539 CNS = test system: SF-539 CNS

Row | Structure (SMILES) | TGI (SF-295 CNS) [µM] | TGI (SK-MEL-2 melanoma) [µM] | TGI (OVCAR-8 ovarian) [µM] | TGI (OVCAR-5 ovarian) [µM] | TGI (HCC-2998 colon) [µM] | TGI (UO-31 renal) [µM] | TGI (NCI-H460 lung) [µM] | TGI (RXF 393 renal) [µM] | TGI (HOP-92 NSCLC) [µM] | TGI (SF-539 CNS) [µM] | GI50 (SF-295 CNS) [µM] | GI50 (SK-MEL-2 melanoma) [µM] | GI50 (OVCAR-8 ovarian) [µM] | GI50 (OVCAR-5 ovarian) [µM] | GI50 (SF-539 CNS) [µM] | GI50 (HCC-2998 colon) [µM] | GI50 (NCI-H460 lung) [µM] | GI50 (RXF 393 renal) [µM] | GI50 (HOP-92 NSCLC) [µM] | GI50 (UO-31 renal) [µM]
1 | OCC1NC(CO)C(O)C1O (stereo unspecified) | > 100 | > 100 | > 100 | > 100 | > 100 | > 100 | > 100 | > 100 | > 100 |  |  |  |  |  |  |  |  |  |  | 
2 | C=C(CN(C)C)C(=O)c1ccccc1 | 47.4 | 32.9 | 44.6 | 30.4 | 32.7 | 19.2 | 37.5 | 6.47 | 5.79 | 27.1 |  |  |  |  |  |  |  |  |  | 
3 | O=S1(=O)C[C@H](NCc2ccccc2)[C@H](NCc2ccccc2)C1 | > 100 | > 100 | > 100 | > 100 | > 100 | > 100 | > 100 | > 100 | > 100 | > 100 |  |  |  |  |  |  |  |  |  | 
4 | CCOP(=O)(OCC)C(Cc1c[nH]c2ccccc12)C(=O)O (stereo unspecified) | > 100 | > 100 | > 100 | > 100 | > 100 | > 100 | > 100 |  | > 100 |  |  |  |  |  |  |  |  |  |  | 
5 | C[n+]1c(-c2ccc(/C=N\Nc3ccnc(N/N=C/c4ccc(-c5cn6ccsc6[n+]5C)cc4)n3)cc2)cn2ccsc21 |  |  | > 100 | > 100 | 77.2 | > 100 | > 100 | 56.3 | > 100 | 70.3 |  |  |  |  |  |  |  |  |  | 
6 | COc1ccc(CCn2ccc(C)n2)c(OC)c1 | > 100 |  | > 100 | > 100 |  | > 100 | > 100 | > 100 |  | > 100 |  |  |  |  |  |  |  |  |  | 
7 | Nc1ccc(C2(c3ccc(N)cc3)C3CC4CC(C3)CC2C4)cc1 | 20.3 | 34.8 | 35.5 | 32.7 | 41 | 33.9 |  | 17.8 | 28.5 |  |  |  |  |  |  |  |  |  |  | 
8 | CC(C)N(CCNc1nc(C(Cl)(Cl)Cl)nc2cc(Cl)ccc12)C(C)C | 3.66 | 3.63 | 3.4 | 2.48 | 2.86 |  | 2.6 | 2.78 | 3.17 | 3.38 | 1.73 | 1.76 | 1.83 | 1.16 | 1.82 | 1.34 | 1.13 | 1.41 | 1.01 | 
9 | Nc1nc(N)c(N=Nc2ccccc2)c(=O)[nH]1 | > 100 | > 100 | > 100 | > 100 | > 100 | > 100 | > 100 |  | > 100 | > 100 |  |  |  |  |  |  |  |  |  | 
10 | Cc1ccc(S(=O)(=O)NCCCSCCN)cc1 | > 100 |  | > 100 |  | > 100 | > 100 | > 100 | > 100 | > 100 |  |  |  |  |  |  |  |  |  |  | 
11 | CC(=O)OC/C=C\Cn1ncc(=O)[nH]c1=O |  | 40.2 | 66.1 | 32.3 | 35 | 37.5 | 48.7 | 37.1 | 30.6 | 35.7 |  |  |  |  |  |  |  |  |  | 
12 | CC=C/C=C/[C@@H]1O[C@](O)([C@H](CC)C(=O)NC/C=C/C=C(\C)[C@@H](OC)[C@@H](C)[C@@H]2O[C@H](/C=C/C=C/C=C(\C)C(=O)c3c(O)cc[nH]c3=O)[C@H](O)[C@@H]2O)[C@H](O)[C@H](O)C1(C)C | > 100 | > 100 | > 100 | > 100 | > 100 | > 100 | > 100 |  | > 100 | > 100 |  |  |  |  |  |  |  |  |  | 
13 | COc1ccc(/C=C/c2cc(O)cc(OC3OC(CO)C(O)C(O)C3O)c2)cc1O (stereo unspecified) | > 100 | > 100 | > 100 | > 100 | > 100 | > 100 | > 100 | > 100 | > 100 | > 100 |  |  |  |  |  |  |  |  |  | 
14 | CC(O)C1(O)C(O)CC(OC2c3cc4c(c(O)c3[C@@H]3C[C@@]2(C)OC32C=c3cc[nH]c3=N2)C(=O)c2cccc(O)c2C4=O)OC1C (stereo partly specified) | 5.73 | 3.11 | 4.75 | 9.49 | 2.84 | 8.44 | 4.03 | 2.31 | 7.44 | 2.79 |  |  |  |  |  |  |  |  |  | 
15 | O=C(Nc1ccc(C(F)(F)F)cc1[N+](=O)[O-])C(=O)Nn1c(=S)[nH]c2ccccc2c1=O | > 100 | > 100 | > 100 | > 100 | > 100 | > 100 | > 100 | > 100 | > 100 | > 100 |  |  |  |  |  |  |  |  |  | 
16 | O=Nn1c2ccccc2c2ccccc21 | > 100 | > 100 | > 100 | > 100 | 60.7 | > 100 | > 100 | > 100 | > 100 | > 100 |  |  |  |  |  |  |  |  |  | 
17 | CCOC(=O)CCCc1cc(=O)c2c(C)c3[nH]c4ccc(Cl)cc4c3c(C)c2[nH]1 | 67 | 71.8 | 59.8 | > 100 | > 100 | 45.4 | 32.7 | 27.1 | 68.2 | 31.6 |  |  |  |  |  |  |  |  |  | 
18 | Fc1ccc(C2CC(c3cccc(Nc4ccncc4)c3)=NN2c2ccccc2)cc1 (stereo unspecified) | 3.16 |  |  | 5.27 | 3 | 2.86 | 3.19 |  | 2.73 | 3.06 | 1.74 |  |  | 2.18 | 1.65 | 1.63 | 1.76 |  | 1.33 | 1.45
